{"source": "patent US20250257064A1", "about": "“TRIFLUOROMETHYL-SUBSTITUTED SULFONAMIDE AS BCL-2-SELECTIVE INHIBITOR” (Chia Tai Tianqing Pharmaceutical Group Co., Ltd., priority 2018, published 2025)", "key": {"BCL-XL/BAK": {"molecular_target": "T1, BCL-XL/BAK (Homo sapiens, UniProt Q07817)", "T1 construct": "purchased Cisbio", "T1 sequence (Q07817 whole entry, species assumed)": "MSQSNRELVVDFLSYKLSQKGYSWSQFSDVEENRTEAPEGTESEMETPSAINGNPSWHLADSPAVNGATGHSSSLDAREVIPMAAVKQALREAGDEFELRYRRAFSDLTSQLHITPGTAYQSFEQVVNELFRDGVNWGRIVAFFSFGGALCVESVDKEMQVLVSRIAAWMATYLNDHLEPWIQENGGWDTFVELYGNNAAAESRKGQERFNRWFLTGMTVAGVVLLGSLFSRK", "assay": "Screening on inhibitory activity for BCL-XL/BAK binding (Cisbio HTRF kit)", "procedure": "1.2 Screening on Inhibitory Activity for BCL-XL/BAK Binding\n300 nM Tag1-BCL-XL protein stock solution and 10 μM Tag2-BAK protein stock solution were diluted to 2 nM and 80 nM respectively with dilution buffer in kit (model: BCL-XL/BAK (BH3) BINDING ASSAY KITS, from Cisbio). 5 μL of Tag1-BCL-XL protein diluent was added to each well, then different compounds dissolved with DMSO were added to the wells with a nanoliter pipettor, allowing the final compound concentrations to be 2000 nM to 0.488 nM (4-fold gradient for 7 concentrations in total). Blank control wells (without enzyme) and negative control wells (with enzyme, plus vehicle DMSO) were set, and 2 replicate wells were set. Finally, 5 μL of Tag2-BAK protein diluent was added to each well, and the mixture was mixed well by centrifugation and incubated at 25° C. for 15 min. 100× anti-Tag1-Eu^3+ and 100× anti-Tag2-XL665 were both diluted to 1× working concentration with the detection buffer in the kit. Anti-Tag1-Eu^3+ and anti-Tag2-XL665 were mixed well in a 1:1 ratio, and the mixture was added to wells at 5 µL/well, and incubated at 25° C. for 2 h or more. The plate was read using a PE Envision multi-functional microplate reader (excitation: […], emission: 665 nm) and IC50 (shown in table 1) was calculated by four-parameter fitting."}, "BCL-2/BAK": {"molecular_target": "T2, BCL-2/BAK (Homo sapiens, UniProt P10415)", "T2 construct": "purchased Cisbio", "T2 sequence (P10415 whole entry, species assumed)": "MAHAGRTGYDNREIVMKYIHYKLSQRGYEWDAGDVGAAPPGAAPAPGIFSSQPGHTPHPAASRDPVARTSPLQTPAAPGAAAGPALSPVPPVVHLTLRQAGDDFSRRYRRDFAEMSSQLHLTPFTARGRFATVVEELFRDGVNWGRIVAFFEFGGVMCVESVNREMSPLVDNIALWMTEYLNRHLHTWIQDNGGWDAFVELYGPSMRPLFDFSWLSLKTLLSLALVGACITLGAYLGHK", "assay": "Screening on inhibitory activity for BCL-2/BAK binding (Cisbio HTRF kit)", "procedure": "1.1 Screening on Inhibitory Activity for BCL-2/BAK Binding\n500 nM Tag1-BCL-2 protein stock solution and 20 μM Tag2-BAK protein stock solution were diluted to 5 nM and 120 nM respectively with dilution buffer in kit (model: BCL-2/BAK (BH3) BINDING ASSAY KITS, from Cisbio). 5 μL of Tag1-BCL-2 protein diluent was added to each well, then different compounds dissolved with DMSO were added to the wells with a nanoliter pipettor, allowing the final compound concentrations to be 200 nM to 0.0488 nM (4-fold gradient for 7 concentrations in total). Blank control wells (without enzyme) and negative control wells (with enzyme, plus vehicle DMSO) were set, and 2 replicate wells were set. Finally, 5 μL of Tag2-BAK protein diluent was added to each well, and the mixture was mixed well by centrifugation and incubated at 25° C. for 15 min. 100× anti-Tag1-Eu^3+ and 100× anti-Tag2-XL665 were both diluted to 1× working concentration with the detection buffer in the kit. Anti-Tag1-Eu^3+ and anti-Tag2-XL665 were mixed well in a 1:1 ratio, and the mixture was added to wells at 5 μL/well, and incubated at 25° C. for 2 h or more. The plate was read using a PE Envision multi-functional microplate reader (excitation: […], emission: 665 nm) and IC50 (shown in table 1) was calculated by four-parameter fitting."}, "RS4;11 cells": {"system": "RS4;11 cells", "assay": "Inhibitory effect on proliferation of RS4;11 cells (CCK-8)", "format": "cell-based, human", "conditions": "Homo sapiens, RS4-11, 72 h", "procedure": "Experimental Example 2: Inhibitory Effect of Compounds on Proliferation of RS4;11 Cells\nRS4;11 cells (from Nanjing Cobioer) in logarithmic growth phase and good cell condition were added to a centrifuge tube and centrifuged at 1500 rpm for 3 min in a low speed centrifuge. The supernatant was discarded, and 5 mL of complete medium (RPMI basic medium+10 wt % fetal bovine serum (FBS)) was added using a pipette for cell resuspension. The cells were counted using a cell counter, diluted with complete medium to a cell density of 2×10^5 cells/mL, and added with an equivalent amount of RPMI basic medium to adjust the serum concentration to 5% and the cell density to 1×10^5 cells/mL for plate seeding. The cells were seeded on a 96-well plate at 100 μL/well using a pipettor, and incubated in an incubator at 37° C., 5% CO2 with saturated humidity. After 24 h of incubation, compounds were loaded using a nanoliter pipettor, 2 duplicate wells were set for each concentration, and cells without compound were used as negative controls. […] Inhibition rate (%)=(mean value of negative control group—mean value of experimental group)/(mean value of negative control group—mean value of blank group)×100%. A dose-response curve was fitted by four-parameter analysis, with the logarithm of compound concentration serving as abscissa and inhibition rate serving as ordinate, so that IC50 was calculated (FIG. 2)."}}}
{"compound": "CC1(C)CCC(CN2CCN(c3ccc(C(=O)NS(=O)(=O)c4ccc(NCC5CCCCO5)c([N+](=O)[O-])c4)c(Oc4cnc5[nH]ccc5c4)c3)CC2)=C(c2ccc(C(F)(F)F)cc2Cl)C1", "note": "(stereo not drawn) [Compound 14-1, 4-(4-{[2-(2-chloro-4-trifluoromethylphenyl)-4,4-dimethylcyclohex-1-enyl]methyl}-piperazin-1-yl)-N-({3-nitro-4-[(4-tetrahydro-2H-pyran-2-ylmethyl)amino]phenyl}sulfonyl)-2-(1H-pyrrolo[2,3-b]pyridin-5-yloxy)-benzamide]", "values": [{"measurement": "IC50", "setting": "BCL-XL/BAK", "value": 338, "unit": "nM"}, {"measurement": "IC50", "setting": "BCL-2/BAK", "value": 5.1, "unit": "nM"}, {"measurement": "IC50", "setting": "RS4;11 cells", "value": 8.6, "unit": "nM"}]}
{"compound": "COCC(=O)N1CCC(CNc2ccc(S(=O)(=O)NC(=O)c3ccc(N4CCN(CC5=C(c6ccc(C(F)(F)F)cc6Cl)CC(C)(C)CC5)CC4)cc3Oc3cnc4[nH]ccc4c3)cc2[N+](=O)[O-])CC1", "note": "[Compound 73-1, 4-(4-{[2-(2-chloro-4-trifluoromethylphenyl)-4,4-dimethylcyclohex-1-enyl]methyl}-piperazin-1-yl)-N-({3-nitro-4-[((1-(2-methoxyacetyl)piperidin-4-yl)methyl)amino]phenyl}sulfonyl)-2-(1H-pyrrolo[2,3-b]pyridin-5-yloxy)-benzamide]", "values": [{"measurement": "IC50", "setting": "BCL-XL/BAK", "value": 204, "unit": "nM"}, {"measurement": "IC50", "setting": "BCL-2/BAK", "value": 1.6, "unit": "nM"}, {"measurement": "IC50", "setting": "RS4;11 cells", "value": 1.5, "unit": "nM"}]}
{"compound": "COC(=O)N1CCOC(CNc2ccc(S(=O)(=O)NC(=O)c3ccc(N4CCN(CC5=C(c6ccc(C(F)(F)F)cc6Cl)CC(C)(C)CC5)CC4)cc3Oc3cnc4[nH]ccc4c3)cc2[N+](=O)[O-])C1", "note": "(stereo not drawn) [Compound 75-1, 4-(4-{[2-(2-chloro-4-trifluoromethylphenyl)-4,4-dimethylcyclohex-1-enyl]methyl}-piperazin-1-yl)-N-({3-nitro-4-[((4-(methoxyformyl)morpholin-2-yl)methyl)amino]phenyl}sulfonyl)-2-(1H-pyrrolo[2,3-b]pyridin-5-yloxy)-benzamide]", "values": [{"measurement": "IC50", "setting": "BCL-XL/BAK", "value": 322, "unit": "nM"}, {"measurement": "IC50", "setting": "BCL-2/BAK", "value": 3.5, "unit": "nM"}, {"measurement": "IC50", "setting": "RS4;11 cells", "value": 3.9, "unit": "nM"}]}
{"compound": "CC1(C)CCC(CN2CCN(c3ccc(C(=O)NS(=O)(=O)c4ccc(NC[C@@H]5CN(S(C)(=O)=O)CCO5)c([N+](=O)[O-])c4)c(Oc4cnc5[nH]ccc5c4)c3)CC2)=C(c2ccc(C(F)(F)F)cc2Cl)C1", "note": "[Compound 67-1, (R)-4-(4-{[2-(2-chloro-4-trifluoromethylphenyl)-4,4-dimethylcyclohex-1-enyl]methyl}-piperazin-1-yl)-N-({3-nitro-4-[(((4-(methylsulfonyl)morpholin)-2-yl)methyl)amino]phenyl}sulfonyl)-2-(1H-pyrrolo[2,3-b]pyridin-5-yloxy)-benzamide]", "values": [{"measurement": "IC50", "setting": "BCL-XL/BAK", "value": 199, "unit": "nM"}, {"measurement": "IC50", "setting": "BCL-2/BAK", "value": 0.6, "unit": "nM"}, {"measurement": "IC50", "setting": "RS4;11 cells", "value": 0.8, "unit": "nM"}]}
{"compound": "CC(=O)N1CCOC(CCNc2ccc(S(=O)(=O)NC(=O)c3ccc(N4CCN(CC5=C(c6ccc(C(F)(F)F)cc6Cl)CC(C)(C)CC5)CC4)cc3Oc3cnc4[nH]ccc4c3)cc2[N+](=O)[O-])C1", "note": "(stereo not drawn) [Compound 16-1, 4-(4-{[2-(2-chloro-4-trifluoromethylphenyl)-4,4-dimethylcyclohex-1-enyl]methyl}-piperazin-1-yl)-N-({3-nitro-4-[(2-(4-acetylmorpholin-2-yl)ethyl)amino]phenyl}sulfonyl)-2-(1H-pyrrolo[2,3-b]pyridin-5-yloxy)-benzamide]", "values": [{"measurement": "IC50", "setting": "BCL-XL/BAK", "value": 653, "unit": "nM"}, {"measurement": "IC50", "setting": "BCL-2/BAK", "value": 3.09, "unit": "nM"}, {"measurement": "IC50", "setting": "RS4;11 cells", "value": 7.8, "unit": "nM"}]}
{"compound": "CC1(C)CCC(CN2CCN(c3ccc(C(=O)NS(=O)(=O)c4ccc(NCCCC5CN(S(C)(=O)=O)CCO5)c([N+](=O)[O-])c4)c(Oc4cnc5[nH]ccc5c4)c3)CC2)=C(c2ccc(C(F)(F)F)cc2Cl)C1", "note": "(stereo not drawn) [Compound 71-1, 4-(4-{[2-(2-chloro-4-trifluoromethylphenyl)-4,4-dimethylcyclohex-1-enyl]methyl}-piperazin-1-yl)-N-({3-nitro-4-[(3-(4-(2-methylsulfonyl)morpholin-2-yl)propyl)amino]phenyl}sulfonyl)-2-(1H-pyrrolo[2,3-b]pyridin-5-yloxy)-benzamide]", "values": [{"measurement": "IC50", "setting": "BCL-XL/BAK", "value": 109, "unit": "nM"}, {"measurement": "IC50", "setting": "BCL-2/BAK", "value": 0.76, "unit": "nM"}, {"measurement": "IC50", "setting": "RS4;11 cells", "value": 6.1, "unit": "nM"}]}
